Columns and labels:
[1] = system: common groundsel; assay: Test D common groundsel; assay type: in vivo, Senecio vulgaris; conditions: Postemergence, 0 to 100 scale
[2] = system: Green foxtail; assay: Test D green foxtail; assay type: in vivo; conditions: Rate 250 g/ha; Postemergence; 0 to 100 scale
[3] = system: tall mallow; assay: Test D tall mallow; assay type: in vivo, Malva sylvestris; conditions: Postemergence, 0 to 100 scale
[4] = system: Green foxtail; assay: Test D green foxtail; assay type: in vivo; conditions: Rate 250 g/ha; Postemergence; 0 to 100 scale; remark: listed apart in the source
[5] = system: Green foxtail; assay: Test D green foxtail; assay type: in vivo; conditions: Postemergence, 0 to 100 scale, 0 no injury, 100 complete control
[6] = system: large crabgrass; assay: Test D large crabgrass; assay type: in vivo, Digitaria sanguinalis; conditions: Postemergence, 0 to 100 scale
[7] = system: Green foxtail; assay: Test D green foxtail; assay type: in vivo; conditions: Postemergence, 0 to 100 scale, 0 no injury, 100 complete control; remark: listed apart in the source
[8] = system: Alexandergrass; assay: Test D Alexandergrass; assay type: in vivo, Brachiaria plantaginea; conditions: Postemergence, 0 to 100 scale
[9] = system: guineagrass; assay: Test D guineagrass; assay type: in vivo, Panicum maximum; conditions: Postemergence, 0 to 100 scale
[10] = system: common pursiane; assay: Test D common purslane; assay type: in vivo, Portulaca oleracea; conditions: Postemergence, 0 to 100 scale
[11] = Rate 32 g/ha, 0 no injury, 100 complete control
[12] = Rate 64 g/ha, 0 no injury, 100 complete control
[13] = Rate 125 g/ha, 0 no injury, 100 complete control
[14] = Rate 16 g/ha, 0 no injury, 100 complete control

Row | SMILES | Plant response rating, Com. groundsel [1, 12] | Plant response rating, Com. groundsel [1, 13] | Plant response rating, Com. groundsel ([1]; Rate 250 g/ha) | Plant response rating, Green foxtail [2] | Plant response rating, Tall Mallow [3, 14] | Plant response rating, Tall Mallow [3, 11] | Tall Mallow plant response rating [3, 12] | Tall Mallow plant response rating [3, 13] | Plant response rating, Tall Mallow ([3]; Rate 250 g/ha) | Plant response rating, Green foxtail [4] | Plant response rating, Green foxtail ([5]; Rate 64 g/ha) | Plant response rating, Green foxtail ([5]; Rate 125 g/ha) | Plant response rating, Large crabgrass [6, 14] | Plant response rating, Large crabgrass [6, 11] | Plant response rating, Large crabgrass [6, 12] | Plant response rating, Large crabgrass [6, 13] | Plant response rating, Large crabgrass ([6]; Rate 250 g/ha) | Plant response rating, Alexandergrass [8, 12] | Plant response rating, Guineagrass [9, 12] | Plant response rating, C. purslane [10, 12] | also measured
1 | CC(C)N(C(=O)n1oc(=O)n(C2CC2)c1=O)c1ccc(Cl)cc1 [Compound 241] | 0 | 100 | 100 | 100 | 0 | 0 | 0 | 10 | 40 | 100 | 10 | 100 | 0 | 70 | 100 | 100 | 100 | 10 | 80 | 0 | Plant response rating, Com. groundsel [1, 11]: 0; Plant response rating, Green foxtail ([7]; Rate 16 g/ha): 0; Plant response rating, Green foxtail ([7]; Rate 32 g/ha): 10; Plant response rating, Alexandergrass [8, 14]: 0; Plant response rating, Alexandergrass [8, 11]: 10; Plant response rating, Alexandergrass [8, 13]: 100; Plant response rating, Alexandergrass ([8]; Rate 250 g/ha): 100; Plant response rating, Guineagrass [9, 14]: 0; Plant response rating, Guineagrass [9, 11]: 0; Guineagrass plant response rating [9, 12]: 100; Plant response rating, Guineagrass [9, 13]: 100; Plant response rating, Guineagrass ([9]; Rate 250 g/ha): 100; Plant response rating, C. purslane [10, 14]: 0; Plant response rating, C. purslane [10, 11]: 0; Plant response rating, C. purslane [10, 13]: 0; Plant response rating, C. purslane ([10]; Rate 250 g/ha): 0
2 | CC(C)N(C(=O)n1oc(=O)n(C2CCC2)c1=O)c1ccccc1 [Compound 348] | 50 | 100 | 100 | 100 | 0 | 0 | 0 | 20 | 40 | 100 | 100 | 100 | 20 | 60 | 100 | 100 | 100 | 70 | 0 | 0 | Plant response rating, Com. groundsel [1, 14]: 30; Plant response rating, Green foxtail ([7]; Rate 16 g/ha): 0; Plant response rating, Green foxtail ([7]; Rate 32 g/ha): 20; Plant response rating, Alexandergrass [8, 14]: 0; Plant response rating, Alexandergrass [8, 11]: 0; Plant response rating, Alexandergrass [8, 13]: 100; Plant response rating, Alexandergrass ([8]; Rate 250 g/ha): 100; Plant response rating, Guineagrass [9, 14]: 0; Plant response rating, Guineagrass [9, 11]: 0; Plant response rating, Guineagrass [9, 13]: 100; Plant response rating, Guineagrass ([9]; Rate 250 g/ha): 80; Plant response rating, C. purslane [10, 14]: 0; Plant response rating, C. purslane [10, 11]: 0; Plant response rating, C. purslane [10, 13]: 0; Plant response rating, C. purslane ([10]; Rate 250 g/ha): 0
3 | CC(C)N(C(=O)n1oc(=O)n(C2CCC2)c1=O)c1ccc(Cl)cc1 [Compound 349] |  | 20 | 50 | 100 | 0 | 0 | 0 | 0 | 0 | 100 | 10 | 80 | 0 | 0 | 70 | 100 | 100 | 40 | 20 | 0 | Plant response rating, Green foxtail ([7]; Rate 16 g/ha): 0; Plant response rating, Green foxtail ([7]; Rate 32 g/ha): 0; Plant response rating, Alexandergrass [8, 14]: 0; Plant response rating, Alexandergrass [8, 11]: 0; Plant response rating, Alexandergrass [8, 13]: 70; Plant response rating, Alexandergrass ([8]; Rate 250 g/ha): 90; Plant response rating, Guineagrass [9, 14]: 0; Plant response rating, Guineagrass [9, 11]: 0; Guineagrass plant response rating [9, 12]: 0; Plant response rating, Guineagrass [9, 13]: 0; Plant response rating, Guineagrass ([9]; Rate 250 g/ha): 40; Plant response rating, C. purslane [10, 14]: 0; Plant response rating, C. purslane [10, 11]: 0; Plant response rating, C. purslane [10, 13]: 0; Plant response rating, C. purslane ([10]; Rate 250 g/ha): 0
4 | CC(C)Cn1c(=O)on(C(=O)N(c2ccc(F)cc2)C(C)C)c1=O [Compound 169] | 65 |  |  |  |  |  | 0 |  |  |  | 100 |  |  |  | 100 |  |  | 65 | 100 | 0 | Guineagrass plant response rating [9, 12]: 0

Reference: patent publication US6737383B1, “Herbicidal oxadiazolidines” (priority 1999, dated 2004)
